Laboratory results: ChEMBL document CHEMBL1938343, “Lead optimisation of selective non-zinc binding inhibitors of MMP13. Part 2” (Bioorg Med Chem Lett, 2012)

How the values were obtained:
Collagenase 3 = Collagenase 3 (Homo sapiens, UniProt P45452); experiment: Inhibition of recombinant human MMP13 using Mca-Pro-cyclohexyl-Ala-Gly-Nva-His-Ala- Dap(Dnp)-NH2 as substrate by fluorometric analysis; settings: read-out: pIC50 (converted)
[1] = molecular target: 72 kDa type IV collagenase (Homo sapiens, UniProt P08253); experiment: Inhibition of MMP2 using Mca-Pro-cyclohexyl-Ala-Gly-Nva-His-Ala- Dap(Dnp)-NH2 as substrate by fluorometric analysis; settings: read-out: pIC50 (converted)
Chain of 72 kDa type IV collagenase (P08253 whole entry): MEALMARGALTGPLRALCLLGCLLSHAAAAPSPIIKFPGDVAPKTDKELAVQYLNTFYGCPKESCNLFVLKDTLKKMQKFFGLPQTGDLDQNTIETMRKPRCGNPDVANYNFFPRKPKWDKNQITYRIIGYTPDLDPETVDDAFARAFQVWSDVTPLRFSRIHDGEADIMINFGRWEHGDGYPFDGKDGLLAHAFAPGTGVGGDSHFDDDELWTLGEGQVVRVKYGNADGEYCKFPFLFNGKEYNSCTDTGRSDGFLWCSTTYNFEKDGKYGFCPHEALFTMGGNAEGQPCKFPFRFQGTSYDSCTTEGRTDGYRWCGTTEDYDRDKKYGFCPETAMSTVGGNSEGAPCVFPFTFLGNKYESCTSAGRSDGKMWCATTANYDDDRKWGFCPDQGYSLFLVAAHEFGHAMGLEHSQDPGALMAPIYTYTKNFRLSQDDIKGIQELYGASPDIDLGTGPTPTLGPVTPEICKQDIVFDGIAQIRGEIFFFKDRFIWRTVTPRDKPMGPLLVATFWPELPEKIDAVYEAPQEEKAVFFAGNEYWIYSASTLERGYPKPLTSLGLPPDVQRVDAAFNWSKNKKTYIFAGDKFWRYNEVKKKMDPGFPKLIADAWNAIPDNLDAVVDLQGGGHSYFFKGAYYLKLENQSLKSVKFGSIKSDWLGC

[2] = Intrinsic clearance in human microsomes; format: ADME, Microsome
[3] = molecular target: Matrix metalloproteinase-9 (Homo sapiens, UniProt P14780); experiment: Inhibition of MMP9 using Mca-Pro-cyclohexyl-Ala-Gly-Nva-His-Ala- Dap(Dnp)-NH2 as substrate by fluorometric analysis; settings: read-out: pIC50 (converted)
Chain of Matrix metalloproteinase-9 (P14780 whole entry): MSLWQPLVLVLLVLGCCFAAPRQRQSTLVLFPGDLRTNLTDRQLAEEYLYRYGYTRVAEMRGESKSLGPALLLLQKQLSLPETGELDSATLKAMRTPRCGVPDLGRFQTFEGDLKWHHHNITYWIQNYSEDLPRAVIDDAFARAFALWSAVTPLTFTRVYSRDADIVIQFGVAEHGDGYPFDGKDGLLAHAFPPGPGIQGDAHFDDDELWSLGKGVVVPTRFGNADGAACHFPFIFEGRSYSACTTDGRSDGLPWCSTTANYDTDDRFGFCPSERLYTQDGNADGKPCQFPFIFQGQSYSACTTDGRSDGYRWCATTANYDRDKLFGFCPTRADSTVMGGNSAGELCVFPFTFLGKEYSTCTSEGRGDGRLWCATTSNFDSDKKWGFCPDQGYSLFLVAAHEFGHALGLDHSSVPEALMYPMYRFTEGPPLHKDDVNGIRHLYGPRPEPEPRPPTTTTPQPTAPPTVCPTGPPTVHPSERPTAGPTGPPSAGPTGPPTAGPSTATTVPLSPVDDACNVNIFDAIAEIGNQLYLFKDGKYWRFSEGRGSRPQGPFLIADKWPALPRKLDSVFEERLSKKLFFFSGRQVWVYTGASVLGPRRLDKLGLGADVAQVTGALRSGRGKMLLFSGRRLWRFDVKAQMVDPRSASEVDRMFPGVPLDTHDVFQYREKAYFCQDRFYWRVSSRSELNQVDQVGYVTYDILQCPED

[4] = molecular target: Macrophage metalloelastase (Homo sapiens, UniProt P39900); experiment: Inhibition of MMP12 using Mca-Pro-cyclohexyl-Ala-Gly-Nva-His-Ala- Dap(Dnp)-NH2 as substrate by fluorometric analysis; settings: read-out: pIC50 (converted)
Chain of Macrophage metalloelastase (P39900 whole entry): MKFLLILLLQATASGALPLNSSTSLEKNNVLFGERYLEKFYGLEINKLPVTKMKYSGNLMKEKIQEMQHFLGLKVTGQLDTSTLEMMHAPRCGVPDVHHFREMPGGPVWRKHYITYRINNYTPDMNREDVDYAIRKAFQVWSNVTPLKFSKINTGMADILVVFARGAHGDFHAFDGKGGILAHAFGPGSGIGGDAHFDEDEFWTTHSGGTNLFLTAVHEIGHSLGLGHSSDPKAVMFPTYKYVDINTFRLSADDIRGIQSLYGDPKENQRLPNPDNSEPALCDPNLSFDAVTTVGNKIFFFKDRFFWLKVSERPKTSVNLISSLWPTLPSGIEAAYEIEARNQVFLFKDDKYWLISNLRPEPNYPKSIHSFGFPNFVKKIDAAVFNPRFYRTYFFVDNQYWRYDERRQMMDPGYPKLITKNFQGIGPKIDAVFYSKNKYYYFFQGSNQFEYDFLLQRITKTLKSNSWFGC

[5] = molecular target: Matrix metalloproteinase-14 (Homo sapiens, UniProt P50281); experiment: Inhibition of MMP14 using Mca-Pro-cyclohexyl-Ala-Gly-Nva-His-Ala- Dap(Dnp)-NH2 as substrate by fluorometric analysis; settings: read-out: pIC50 (converted)
[6] = Intrinsic clearance in Sprague-Dawley rat hepatocytes assessed per 10^6 cells; format: ADME, cell-based, Hepatocyte; settings: Sprague-Dawley, read-out: CLH
[7] = molecular target: MMP-2/MMP-13 (Homo sapiens) (UniProt P08253+P45452); experiment: Selectivity ratio of pIC50 for MMP2 to pIC50 for recombinant human MMP13
Chain of MMP-2/MMP-13 (Homo sapiens) (P08253 whole entry, looked up, other chains not shown): as the sequence (P08253 whole entry) above

[8] = Apparent permeability across apical to basolateral side in human Caco2 cells at 10 uM; format: ADME, cell-based; settings: Caco-2
[9] = Apparent permeability across basolateral to apical side in human Caco2 cells at 10 uM; format: ADME, cell-based; settings: Caco-2
[10] = Oral bioavailability in rat; format: ADME, organism-based; settings: in vivo

Row | SMILES | IC50 (Collagenase 3) [µM] | IC50 [1] [µM] | microsomal CLint [2] [µL/min/mg] | other results
1 | O=C(Nc1ccccn1)c1ccc(Oc2ccc(C#C[C@]3(O)CN4CCC3CC4)cc2)cc1 | 0.316 | > 10 | < 2 | 
2 | O=C(NCc1ccncc1)c1ccc(Oc2ccc(C#C[C@]3(O)CN4CCC3CC4)cc2)cc1 |  | 6.31 | 10.2 | 
3 | O=C(NC1CCN(C2CC2)CC1)c1ccc(Oc2ccc(C#C[C@]3(O)CN4CCC3CC4)cc2)cc1 | 0.0794 | 7.94 | 4.7 | IC50 [3]: > 10 µM; IC50 [4]: > 10 µM; IC50 [5]: > 10 µM
4 | CC(=O)Nc1ccc(Oc2ccc(C#C[C@]3(O)CN4CCC3CC4)cc2)cc1 | > 10 |  |  | 
5 | CS(=O)(=O)c1ccc(Oc2ccc(C#C[C@]3(O)CN4CCC3CC4)cc2)cc1 | 0.316 |  |  | 
6 | N#Cc1cccc(CNC(=O)c2ccc(Oc3ccc(C#C[C@]4(O)CN5CCC4CC5)cc3)cc2)c1 | 0.0631 | > 10 | 9.9 | 
7 | COc1ccc(CNC(=O)c2ccc(Oc3ccc(C#C[C@]4(O)CN5CCC4CC5)cc3)cc2)c(OC)c1 | 0.0398 | 6.31 | 16.1 | 
8 | CNC(=O)N1CCC(NC(=O)c2ccc(Oc3ccc(C#C[C@]4(O)CN5CCC4CC5)cc3)cc2)CC1 | 0.0501 | 3.98 | < 2 | IC50 [3]: > 10 µM; IC50 [4]: > 10 µM; IC50 [5]: > 10 µM
9 | O=C(NCc1ccccc1)c1ccc(Oc2ccc(C#C[C@]3(O)CN4CCC3CC4)cc2)cc1 | 0.0631 | 7.94 | < 2 | 
10 | CN(Cc1ccncc1)C(=O)c1ccc(Oc2ccc(C#C[C@]3(O)CN4CCC3CC4)cc2)cc1 | 0.251 | > 10 |  | 
11 | CS(=O)(=O)Oc1cccc(CNC(=O)c2ccc(Oc3ccc(C#C[C@]4(O)CN5CCC4CC5)cc3)cc2)c1 | 0.0631 | 7.94 | 8.6 | 
12 | COc1cc(CNC(=O)c2ccc(Oc3ccc(C#C[C@]4(O)CN5CCC4CC5)cc3)cc2)cc(OC)c1 | 0.0501 | 7.94 | 4.8 | 
13 | C[S+]([O-])c1ccc(Oc2ccc(C#C[C@]3(O)CN4CCC3CC4)cc2)cc1 (stereo partly specified) | 0.398 |  |  | 
14 | O=C(NC1CCN(C(=O)C2CC2)CC1)c1ccc(Oc2ccc(C#C[C@]3(O)CN4CCC3CC4)cc2)cc1 | 0.0251 | 6.31 | 3.7 | IC50 [3]: > 10 µM; IC50 [4]: > 10 µM; IC50 [5]: > 10 µM
15 | CS(=O)(=O)N1CCC(NC(=O)c2ccc(Oc3ccc(C#C[C@]4(O)CN5CCC4CC5)cc3)cc2)CC1 | 0.0501 | 7.94 | 2.9 | IC50 [3]: > 10 µM; IC50 [4]: > 10 µM; IC50 [5]: > 10 µM; hepatocyte CLint [6]: < 2 µL/min/1e6 cells
16 | COc1ccc(CNC(=O)c2ccc(Oc3ccc(C#C[C@]4(O)CN5CCC4CC5)cc3)cc2)nc1 | 0.0316 | > 10 | 5.6 | Ratio pIC50 [7]: > 300
17 | C[C@@H](NC(=O)c1ccc(Oc2ccc(C#C[C@]3(O)CN4CCC3CC4)cc2)cc1)c1ccncc1 | 0.0126 | 3.98 | 18.8 | Ratio pIC50 [7]: > 300
18 | O=C(NCC1CCCCC1)c1ccc(Oc2ccc(C#C[C@]3(O)CN4CCC3CC4)cc2)cc1 | 0.1 | 5.01 |  | 
19 | CONC(=O)c1ccc(Oc2ccc(C#C[C@]3(O)CN4CCC3CC4)cc2)cc1 | 2.51 |  |  | 

Row | SMILES | IC50 (Collagenase 3) [µM] | IC50 [1] [µM] | microsomal CLint [2] [µL/min/mg] | other results
20 | O=C(NCc1ccnc2ccccc12)c1ccc(Oc2ccc(C#C[C@]3(O)CN4CCC3CC4)cc2)cc1 | 0.02 | 2 | 26.1 | 
21 | NC(=O)c1ccc(Oc2ccc(C#C[C@]3(O)CN4CCC3CC4)cc2)cc1 | 0.631 |  |  | 
22 | O=C(O)c1ccc(Oc2ccc(C#C[C@]3(O)CN4CCC3CC4)cc2)cc1 | 5.01 |  |  | 
23 | OCc1ccc(Oc2ccc(C#C[C@]3(O)CN4CCC3CC4)cc2)cc1 | > 10 |  |  | 
24 | O=C(NCc1ccc(F)cc1)c1ccc(Oc2ccc(C#C[C@]3(O)CN4CCC3CC4)cc2)cc1 | 0.1 | 6.31 |  | 
25 | CS(=O)(=O)c1cccc(CNC(=O)c2ccc(Oc3ccc(C#C[C@]4(O)CN5CCC4CC5)cc3)cc2)c1 | 0.0316 | 7.94 | 12.5 | 
26 | CC(=O)N1CCC(NC(=O)c2ccc(Oc3ccc(C#C[C@]4(O)CN5CCC4CC5)cc3)cc2)CC1 | 0.0398 | 5.01 | 2.5 | IC50 [3]: > 10 µM; IC50 [4]: > 10 µM; IC50 [5]: > 10 µM; hepatocyte CLint [6]: < 2 µL/min/1e6 cells
27 | COc1cccc(CNC(=O)c2ccc(Oc3ccc(C#C[C@]4(O)CN5CCC4CC5)cc3)cc2)c1 | 0.0794 | > 10 | 10.9 | 
28 | O=C(NC1CCS(=O)(=O)C1)c1ccc(Oc2ccc(C#C[C@]3(O)CN4CCC3CC4)cc2)cc1 (stereo partly specified) | 0.0794 | 7.94 | < 2 | IC50 [3]: > 10 µM; IC50 [4]: > 10 µM; IC50 [5]: > 10 µM; hepatocyte CLint [6]: < 2 µL/min/1e6 cells
29 | CN(C)C(=O)c1ccc(Oc2ccc(C#C[C@]3(O)CN4CCC3CC4)cc2)cc1 | 1.58 |  |  | 
30 | CC(C)NC(=O)c1ccc(Oc2ccc(C#C[C@]3(O)CN4CCC3CC4)cc2)cc1 | 0.1 | > 10 |  | 
31 | O=C(NC1CCS(=O)(=O)CC1)c1ccc(Oc2ccc(C#C[C@]3(O)CN4CCC3CC4)cc2)cc1 | 0.1 | > 10 | 2.5 | IC50 [3]: > 10 µM; IC50 [4]: > 10 µM; IC50 [5]: > 10 µM
32 | Cc1cc(CN(C)C(=O)c2ccc(Oc3ccc(C#C[C@]4(O)CN5CCC4CC5)cc3)cc2)on1 | 0.0794 | 7.94 | 2.7 | Papp A→B at 10 µM [8]: 8.2 ×10⁻⁶ cm/s; Papp B→A at 10 µM [9]: 53 ×10⁻⁶ cm/s; bioavailability [10]: 3%
33 | CNS(=O)(=O)c1ccc(Oc2ccc(C#C[C@]3(O)CN4CCC3CC4)cc2)cc1 | 0.1 |  |  | 
34 | CC[C@@H](C)NC(=O)c1ccc(Oc2ccc(C#C[C@]3(O)CN4CCC3CC4)cc2)cc1 | 0.0501 | 6.31 | 8.9 | 
35 | O=C(NC1CCCCC1)c1ccc(Oc2ccc(C#C[C@]3(O)CN4CCC3CC4)cc2)cc1 | 0.0251 | > 10 | 2.9 | 
36 | COc1ccc(CNC(=O)c2ccc(Oc3ccc(C#C[C@]4(O)CN5CCC4CC5)cc3)cc2)cc1OC | 0.01 | 1.26 | 2.7 | 
37 | CS(=O)(=O)Nc1ccc(Oc2ccc(C#C[C@]3(O)CN4CCC3CC4)cc2)cc1 | 2.51 |  |  | 
38 | CCOC(=O)c1ccc(Oc2ccc(C#C[C@]3(O)CN4CCC3CC4)cc2)cc1 | 1 |  |  | 
